From patent US12054510B2, “2′ and/or 5′ amino-acid ester phosphoramidate 3′-deoxy adenosine derivatives as anti-cancer compounds” (Nucana plc, priority 2014, dated 2024)

Columns and labels:
Jurkat = assay: Solid tumour and haematological malignancy assay (CellTiterGlo); format: cell-based; settings: for MI %: 72 hr; for IC50: Homo sapiens, 72 h, read-out: IC50 (absolute IC50)
Description: (§1) In vitro viability assay were performed to assess the effects of compounds on cell viability in selected cell lines over 72 hr using the CellTiterGlo (CTG, Promega-G7573) assay. The tests were performed in duplicates with treatment of compounds at 9 points, 3.16 folds titration in 96 well plates over ˜72 hr. The compound starting concentrations were 198 mM. Cell viability assay using CellTiterGlo in 96-well plate were performed. Compound treatment 72 hrs, standard growth conditions, duplicates. Compounds were dissolved to 40 mM with thawed […]. Compounds were serially diluted at 3.16 fold in thawed DMSO, and warmed to 37° C. before being dissolved in media (2 μl+200 μl). After compounds were dissolved in media, media containing compounds were warmed to 37° C. in incubator and then compounds in media were added to cell plates (50 μl+50 μl) in duplicates. The compounds' final concentrations were from 198M to 19.9 nM. All compound solubilities were checked and recorded again, then the plates were transferred to CO2 tissue culture incubator immediately and incubated for 3 days. DMSO final concentration is 0.5%.

MOLT-4 = assay: as above; format: cell-based; settings: Homo sapiens, MOLT-4, 72 h; for IC50: read-out: IC50 (absolute IC50); for Emax: read-out: MI %
Description: as §1

HEL92.1.7 = assay: as above; format: cell-based; settings: Homo sapiens, HEL 92.1.7, 72 h, read-out: MI %
Description: as §1, with “The tests were performed in duplicates with treatment of compounds at 9 points, 3.16 folds titration in 96 well plates over ˜72 hr. The compound starting concentrations were 198 mM.” left out, “Compounds were serially diluted at 3.16 fold in thawed DMSO, and warmed to 37° C. before being dissolved in media (2 μl+200 μl).” left out, “The compounds' final concentrations were from 198M to 19.9 nM.” left out

HL-60 = assay: as above; format: cell-based; settings: Homo sapiens, HL-60, 72 h, read-out: MI %
Description: as §1, with “The tests were performed in duplicates with treatment of compounds at 9 points, 3.16 folds titration in 96 well plates over ˜72 hr. The compound starting concentrations were 198 mM.” left out, “Compounds were serially diluted at 3.16 fold in thawed DMSO, and warmed to 37° C. before being dissolved in media (2 μl+200 μl).” left out, “The compounds' final concentrations were from 198M to 19.9 nM.” left out

HT29 = assay: as above; format: cell-based; settings: Homo sapiens, HT-29, 72 h; for IC50: read-out: IC50 (absolute IC50); for Emax: read-out: MI %
Description: as §1, with “The tests were performed in duplicates with treatment of compounds at 9 points, 3.16 folds titration in 96 well plates over ˜72 hr. The compound starting concentrations were 198 mM.” left out, “Compounds were serially diluted at 3.16 fold in thawed DMSO, and warmed to 37° C. before being dissolved in media (2 μl+200 μl).” left out, “The compounds' final concentrations were from 198M to 19.9 nM.” left out

HepG2 = assay: as above; format: cell-based; settings: Homo sapiens, HepG2, 72 h; for Emax: read-out: MI %
Description: as §1, with “The tests were performed in duplicates with treatment of compounds at 9 points, 3.16 folds titration in 96 well plates over ˜72 hr. The compound starting concentrations were 198 mM.” left out, “Compounds were serially diluted at 3.16 fold in thawed DMSO, and warmed to 37° C. before being dissolved in media (2 μl+200 μl).” left out, “The compounds' final concentrations were from 198M to 19.9 nM.” left out

K562 = assay: as above; format: cell-based; settings: Homo sapiens, K562, 72 h; for IC50: read-out: IC50 (absolute IC50); for Emax: read-out: MI %
Description: as §1, with “The tests were performed in duplicates with treatment of compounds at 9 points, 3.16 folds titration in 96 well plates over ˜72 hr. The compound starting concentrations were 198 mM.” left out, “Compounds were serially diluted at 3.16 fold in thawed DMSO, and warmed to 37° C. before being dissolved in media (2 μl+200 μl).” left out, “The compounds' final concentrations were from 198M to 19.9 nM.” left out

KG-1 = assay: as above; format: cell-based; settings: Homo sapiens, KG-1, 72 h; for IC50: read-out: IC50 (absolute IC50); for Emax: read-out: MI %
Description: as §1, with “The tests were performed in duplicates with treatment of compounds at 9 points, 3.16 folds titration in 96 well plates over ˜72 hr. The compound starting concentrations were 198 mM.” left out, “Compounds were serially diluted at 3.16 fold in thawed DMSO, and warmed to 37° C. before being dissolved in media (2 μl+200 μl).” left out, “The compounds' final concentrations were from 198M to 19.9 nM.” left out

MCF7 = assay: as above; format: cell-based; settings: Homo sapiens, MCF7, 72 h; for IC50: read-out: IC50 (absolute IC50); for Emax: read-out: MI %
Description: as §1, with “The tests were performed in duplicates with treatment of compounds at 9 points, 3.16 folds titration in 96 well plates over ˜72 hr. The compound starting concentrations were 198 mM.” left out, “Compounds were serially diluted at 3.16 fold in thawed DMSO, and warmed to 37° C. before being dissolved in media (2 μl+200 μl).” left out, “The compounds' final concentrations were from 198M to 19.9 nM.” left out

MiaPaCa-2 = assay: as above; format: cell-based; settings: Homo sapiens, MIA PaCa-2, 72 h, read-out: MI %
Description: as §1, with “The tests were performed in duplicates with treatment of compounds at 9 points, 3.16 folds titration in 96 well plates over ˜72 hr. The compound starting concentrations were 198 mM.” left out, “Compounds were serially diluted at 3.16 fold in thawed DMSO, and warmed to 37° C. before being dissolved in media (2 μl+200 μl).” left out, “The compounds' final concentrations were from 198M to 19.9 nM.” left out

CEM (TdT+ve) = assay: ATP ViaLight plus cell viability assay; format: cell-based, Human; settings: for (FD) fold difference compared to control: CEM
Description: (§2) Certain compounds of the invention were subjected to further studies to test the cytotoxic activity of certain compounds of the invention and also to measure their activity against 4 haematological cancer cell lines • TdT positive CEM (Human ALL) • TdT negative K562 (Human CML) • TdT negative H1-60 (Human ANLL) • RL (CRL-2261) non-HD lymphoma • The concentrations of the active metabolite dATP (Cordycepin triphosphate) in these cell lines was also measured. • The cytotoxic activity and the intracellular 3′-dATP concentrations were also studied in the presence of hENT1, Adenosine Kinase (AK) and Adenosine Deaminase pharmacological inhibitors in CEM and RL cancer cell lines. Said inhibitors that mimic known cancer resistance mechanisms. Methods Cell Culture
(§3) HL-60, K562, CCRF-CEM and RL cell lines were cultured in RPMI-1640 medium (Sigma Aldrich, UK), which were supplemented with 10% Fetal Bovine Serum (FBS) (PAA Laboratories), 1% amphotericin B (5.5 ml) and 1% penicillin/streptomycin (5.5 ml) (PAA Laboratories) and grown in flasks at 37° C. incubator with 5% CO2.
(§4) The amount of ATP was used as a measurement of cell number and cell viability. ATP ViaLight™ plus assay kit (Lonza, USA: Product No. LT07-121) to detect ATP in cells treated in luminescence compatible 96 well plates (initial concentration of cells was 1×10^4 cells/well) with cordycepin and ProTides at concentrations of: 0, 0.1, 0.5, 1, 5 and 10 μM, followed by incubation for 72 hours at 37° C. incubator with 5% CO2. For inhibitor studies, 10 μM of NBTI or 1 μM EHNA or A-134974 was added and left for 5 minutes before adding the drugs (see section 5 for inhibitor details).
(§5) After incubation, 50 μl of cell lysis reagent was added to the 96 well plates to release the intracellular ATP, followed by 100 μl of ATP monitoring reagent (AMR). The luminescent values of each well were determined using FLUOstar OPTIMA microplate reader (BMG Labtech) which convert ATP into light by using luciferase enzyme. Therefore, the amount of luminescence produced was directly proportional to the amount of ATP.
(§6) Cell lines were treated in the same way as described above but before treatment with drugs, a number of inhibitors were added: • 1) Nitrobenzylthioinosine (NBTI) (Sigma-Aldrich, St. Louis, MO, product # N2255) blocks nucleoside transporters • 2) EHNA hydrochloride (Sigma-Aldrich, St. Louis, MO, product # E114) blocks adenosine deaminase • 3) Adenosine kinase inhibitor A-134974 dihydrochloride hydrate (Sigma-Aldrich, St. Louis, MO, product # A2846): blocks adenosine kinase
(§7) The dose-response curves of cytotoxicity of the drugs was determined using non-linear regression analysis of percentage cell viability versus concentration and EC50 values were obtained. The intracellular assay was conducted in five replicates for each condition. Intracellular assay was determined using paired t test (two-tailed) analysis of 3′ ATP/ATP concentration and p-values were obtained. For all the analysis, Prism Software program (GraphPad Software) was used and Microsoft Powerpoint® 2013 was used to plot the results.

RL (CRL-2261) = assay: ATP ViaLight plus cell viability assay; format: cell-based
Description: as §2, §3, §4, §5, §6, §7

| Compound | MI % (Jurkat) [%] | IC50 (Jurkat) [µM] | IC50 (MOLT-4) [µM] | Emax (MOLT-4) [%] | Emax (HEL92.1.7) [%] | Emax (HL-60) [%] | IC50 (HT29) [µM] | Emax (HT29) [%] | Emax (HepG2) [%] | IC50 (K562) [µM] | Emax (K562) [%] | IC50 (KG-1) [µM] | Emax (KG-1) [%] | IC50 (MCF7) [µM] | Emax (MCF7) [%] | Emax (MiaPaCa-2) [%] | (FD) fold difference compared to Cordycepin = Cordycepin IC50/ProTide IC50 (CEM (TdT+ve); CEM (TdT+ve)) | (FD) fold difference compared to control (CEM (TdT+ve); AK) | (FD) fold difference compared to control (CEM (TdT+ve); EHNA) | (FD) fold difference compared to Cordycepin = Cordycepin IC50/ProTide IC50 (RL (CRL-2261)) | also measured |
| --- | --- | --- | --- | --- | --- | --- | --- | --- | --- | --- | --- | --- | --- | --- | --- | --- | --- | --- | --- | --- | --- |
| C[C@H](NP(=O)(OC[C@@H]1C[C@@H](O)[C@H](n2cnc3c(N)ncnc32)O1)Oc1cccc2ccccc12)C(=O)OCc1ccccc1 (stereo partly drawn) [B, (2S)-benzyl 2-(((((2S,4R,5R)-5-(6-amino-9H-purin-9-yl)-4-hydroxytetrahydrofuran-2-yl)methoxy)(naphthalen-1-yloxy)phosphoryl)amino)propanoate] | 100 | 0.1 to 5 | 0.1 to 5 | 98 | 98 | 99 | 5 to 15 | 98 | 98 | 0.1 to 5 | 99 | 5 to 15 | 97 | 0.1 to 5 | 96 | 98 | 150 | 1 | 1 | 61 | (FD) fold difference compared to control (CEM (TdT+ve); NBTI): 1; (FD) fold difference compared to control (RL (CRL-2261); AK): 1; (FD) fold difference compared to control (RL (CRL-2261); EHNA): 2; (FD) fold difference compared to control (RL (CRL-2261); NBTI): 1 |
| COC(=O)C(C)(C)NP(=O)(OC[C@@H]1C[C@@H](O)[C@H](n2cnc3c(N)ncnc32)O1)Oc1cccc2ccccc12 (stereo partly drawn) [E, Methyl 2-(((((2S,4R,5R)-5-(6-amino-9H-purin-9-yl)-4-hydroxytetrahydrofuran-2-yl)-methoxy)(naphthalen-1-yloxy)phosphoryl)amino)-2-methylpropanoate] | 95 |  |  | 98 | 101 | 95 | 15 to 100 | 76 | 67 | 5 to 15 |  | 15 to 100 |  | 5 to 15 | 89 | 91 | 2 | 1 | 1 | 2 | IC50 (HepG2; read-out: IC50 (absolute IC50)): 15 to 100 µM; (FD) fold difference compared to control (CEM (TdT+ve); NBTI): 2; (FD) fold difference compared to control (RL (CRL-2261); AK): 1; (FD) fold difference compared to control (RL (CRL-2261); EHNA): 1; (FD) fold difference compared to control (RL (CRL-2261); NBTI): 1 |
| CCOC(=O)CCc1ccccc1OP(=O)(N[C@@H](C)C(=O)OCc1ccccc1)OC[C@@H]1C[C@@H](O)[C@H](n2cnc3c(N)ncnc32)O1 (stereo partly drawn) [F, (2S)-benzyl 2-(((((2S,4R,5R)-5-(6-amino-9H-purin-9-yl)-4-hydroxytetrahydrofuran-2-yl)methoxy)(2-(3-ethoxy-3-oxopropyl)phenoxy)phosphoryl)amino)propanoate] | 100 | 0.1 to 5 | 0.1 to 5 | 98 | 99 | 96 | 15 to 100 | 89 | 79 |  | 93 | 15 to 100 | 95 | 5 to 15 | 103 | 101 | 5 |  |  | 7 | IC50 (CEM (TdT+ve); Homo sapiens, 72 h, CEM (TdT+ve), 72 hours): 4.3 µM |
